Experiments:
astrocytes [1] = assay: Injury of incubated astrocytes by 3-NPA, neutron red assay; assay type: cell-based, rat; conditions: average ± SE, after 3 days
Protocol: (§1) Isolation and incubation of astrocytes were conducted according to the method as described in Neuroscience, 87: […], 1998. Thus, cerebral cortex of a fetal rat was removed, from which astrocytes were separated with trypsin treatment at 37° C. for 20 minutes and incubated on a 24 well culture dish containing DMEM media+10% FBS under 5% CO2/air atmosphere at 37° C.
(§2) The injury of incubated astrocytes was induced by replacing the medium with a serum-free DMEM medium (serum-free group) or adding 6 mM of a metabolic inhibitor, 3-nitropropionic acid (3-NPA), to the medium (3-NPA group). The serum-free group and the 3-NPA group were divided into two sub-groups, respectively. To one sub-group of each group, 10 μg/ml of melatonin was added to the medium.
(§3) The number of the alive astrocytes was counted according to the neutron red assay after 3 days from the incubation in the 3-NPA group or according to the MTT (3-(4,5-dimethyl-thiozolyl)-2,5-diphenyl-tetrazolium bromide) assay after 10 days from the replacement of the medium. The test of significance was conducted by ANOVA.

[2] = system: acute pancreatitis (pancreatic edema) induced by cerulein; conditions: rats; cited from earlier work
astroglia = assay: GFAP staining of brain specimens after brain ischemia (middle cerebral artery plug, 1 h, recanalization); assay type: in vivo, rat; conditions: 11 days after onset of ischemia, 6 mg/kg melatonin for 10 days, versus non-melatonin group
Excerpt: Eight to ten-week-old Wister male rats having the body weight of 250 to 300 g were used.
Under halothane anesthesia, a 24 G plug was inserted from a right external carotid artery of each rat so as to arrive to an origin of its middle cerebral artery of Willis's circle through its internal carotid artery. Immediately the anesthesia was stopped and the rat was dehypnotized. After one hour, the plug was taken out under halothane anesthesia, thereby a blood flow was recanalized.
After 11 days from an onset of brain ischemia, the brain of each rat was fixed with an aqueous 4% paraformaldehyde solution to prepare a brain specimen. Then, the brain specimen was stained according to the standard ABC method using an anti-GFAP antibody (GFAP staining; astroglia were stained)
Ischemic rats in Example 1 were divided into two groups. In the first group (non-melatonin administration group), a physiological saline solution was injected to a stomach of each rat using a sound for 10 days from the first day (24 hours after the recanalization of the blood flow). In the second group (melatonin administration group), a melatonin-containing physiological saline solution was similarly administered in an amount of 6 mg of melatonin per kg of rat. […]

cheek pouch of a hamster = conditions: cited from earlier work
blood-brain barrier = assay: IgG diapedesis area from blood vessel after brain ischemia (anti-IgG staining, NIH imaging); assay type: in vivo, rat; conditions: average ± SE; 6 mg/kg melatonin into stomach for 10 days from 24 hours after recanalization; 11 rats
Excerpt: Eight to ten-week-old Wister male rats having the body weight of 250 to 300 g were used. Under halothane anesthesia, a 24 G plug was inserted from a right external carotid artery of each rat so as to arrive to an origin of its middle cerebral artery of Willis's circle through its internal carotid artery. Immediately the anesthesia was stopped and the rat was dehypnotized. After one hour, the plug was taken out under halothane anesthesia, thereby a blood flow was recanalized. Ischemic rats in Example 1 were divided into two groups. In the first group (non-melatonin administration group), a physiological saline solution was injected to a stomach of each rat using a sound for 10 days from the first day (24 hours after the recanalization of the blood flow). In the second group (melatonin administration group), a melatonin-containing physiological saline solution was similarly administered in an amount of 6 mg of melatonin per kg of rat.

[3] = system: production of NO in brain; conditions: after transient ischemia/recirculation; cited from earlier work
CA1 hippocampal neurons = conditions: intraperitoneally, especially prior to cerebral ischemia or during recanalization; cited from earlier work
astrocytes [4] = assay: Injury of incubated astrocytes by serum-free medium, MTT assay; assay type: cell-based, rat; conditions: average ± SE, serum-free DMEM + 10 μg/ml melatonin, after 10 days
Protocol: as §1, §2, §3

[5] = system: carrageenan-induced inflammatory paw swelling; conditions: rats; cited from earlier work
[6] = system: ischemic or histamine-induced paw edema; conditions: various antioxidants including melatonin, together with dexamethasone; cited from earlier work
neurons = assay: MAP-2 staining of brain specimens after brain ischemia; assay type: in vivo, rat; conditions: 6 mg/kg melatonin for 10 days, versus non-melatonin group

SMILES: O=C(O)CC[N+](=O)[O-] [3-NPA, 3-nitropropionic acid]
- number of astrocytes (astrocytes [1]; 6 mM 3-NPA alone): 50 ± 5 % of control

SMILES: COc1ccc2[nH]cc(CCNC(C)=O)c2c1 [melatonin, N-[2-(5-methoxy-1H-indol-3-yl)ethyl]acetamide]
- acute pancreatitis (pancreatic edema) induced by cerulein [2]: reduces an acute pancreatitis
- falling out of astroglia in ischemic core area and gliosis in penumbra area (astroglia): reduced
- edema caused by ischemia-reperfusion of microcirculation (cheek pouch of a hamster; hamster cheek pouch): reduces edema
- increase of permeability of capillaries caused by free radicals (cheek pouch of a hamster; topical exposure to hypoxanthine-xanthine oxidase): reduces the increase of permeability
- IgG diapedesis area, cerebral cortex (blood-brain barrier): 5.5 ± 4.5 mm^2
- IgG diapedesis area, corpus striatum (blood-brain barrier): 7.2 ± 4.0 mm^2
- production of NO in brain [3]: inhibits
- protection of CA1 hippocampal neurons from ischemic injury (CA1 hippocampal neurons): protects
- number of astrocytes (astrocytes [4]): 48 ± 4 % of control
- carrageenan-induced inflammatory paw swelling [5]: suppresses
- suppression by dexamethasone of ischemic or histamine-induced paw edema [6]: enhance or prolong
- number of astrocytes (astrocytes [1]; 6 mM 3-NPA + 10 μg/ml melatonin, neutral red assay): 63 ± 4 % of control
- number of the alive neurons (neurons): higher

Source: US20070098777A1, “Pharmaceutical or Food Composition for Treatment or Prevention of Brain Edema” (AJINOMOTO CO., INC., priority 2000, published 2007)
